Measurements reported in US20240252456A1, “ORAL COMPOSITION, SKIN COSMETIC AND HAIR COSMETIC” (MARUZEN PHARMACEUTICALS CO., LTD., priority 2021, published 2024).

Assays:
tyrosinase = experiment: Tyrosinase activity inhibitory action test; format: biochemical
Experimental: In a 48-well plate, 0.2 mL of McIlvaine buffer solution (pH 6.8), 0.06 mL of 0.3 mg/mL tyrosine solution, and 0.18 mL of the test sample (Sample 3, see Table 4 below for final concentration) dissolved in 25% DMSO solution were added, and they were statically placed at 37° C. for 10 minutes. To this, 0.02 mL of 1000 units/mL tyrosinase solution was added, followed by reaction at 37° C. for 15 minutes. After the reaction was completed, the absorbance at a wavelength of 475 nm was measured. As a blank, the same operation and absorbance measurement were performed in the case in which no enzyme solution was added. Furthermore, as a control, the same measurement was performed in the case in which 25% DMSO solution was added without adding the sample solution. From the obtained measurement results, the tyrosinase activity inhibition rate (%) was calculated using the following equation. [formula] Terms in the equation represent the following respective ones. • A: Absorbance at wavelength 475 nm with test sample addition and enzyme addition • B: Absorbance at wavelength 475 nm with test sample addition and without enzyme addition • C: Absorbance at wavelength 475 nm without sample addition and with enzyme addition • D: Absorbance at wavelength 475 nm without sample addition and without enzyme addition

[1] = tested on: Rat basophil leukemia cells (RBL-2H3); experiment: Hexosaminidase release suppressive action test; format: cell-based; details: 500 μmol/L; RBL-2H3, DNP-specific IgE / DNP-BSA
Experimental: Rat basophil leukemia cells (RBL-2H3) were cultured using spinner modified Eagle's minimum essential medium (S-MEM) containing 15% FBS, and then the cells were collected by a trypsin treatment. The collected cells were diluted with S-MEM containing 15% FBS to a cell density of […], DNP-specific IgE was added to a final concentration of 0.5 μg/mL, and the cells were seeded with 100 μL per well in a 96-well plate and cultured overnight.
After culturing, the medium was removed and the cells were washed twice with 100 μL of Shiraganian buffer solution. […]
After the reaction was completed, 250 μL of 0.1 mol/L Na2CO3/NaHCO3 was added to each well, the absorbance at wavelengths of 415 nm and 650 nm was measured, and the value obtained by subtracting the absorbance at 650 nm from the absorbance at 415 nm was adopted as the corrected value. From the obtained measurement results, the hexosaminidase release suppression rate (%) was calculated using the following equation.
Terms in the equation represent the following respective ones. • A: Absorbance at wavelength 415-650 nm without sample addition • B: Absorbance at wavelength 415-650 nm with test sample addition

AQP3 mRNA = experiment: Aquaporin 3 (AQP3) mRNA expression promotive action test; format: cell-based, human; details: 100 μmol/L; NHEK, 24 hours, corrected with GAPDH
Experimental: Normal human neonatal epidermal keratinocytes (NHEK) were precultured using normal human epidermal keratinocyte growth medium (KGM), and the cells were collected by a trypsin treatment. The collected cells were diluted with KGM to a cell density of 15×10^4 cells/mL, then seeded with 2 mL portions in a 6-well plate (30×10^4 cells/well), and cultured overnight under conditions of 37° C. and 5% CO2. After culturing, the medium was replaced with normal human epidermal keratinocyte basal medium (KBM, the above KGM without addition of growth additives (hEGF, BPE, insulin, antibacterial agents, hydrocortisone)), and culturing was further performed for 24 hours.
After culturing for 24 hours, the medium was removed, and 2 mL of the test sample (Sample 1, see Table 17 below for final concentration) dissolved in KBM was added to each well, and culturing was performed under conditions of 37° C. and 5% CO2 for 24 hours. As a control, culturing was performed in the same manner using KBM to which no sample was added. After culturing, the medium was removed, total RNA was extracted using ISOGEN II (available from NIPPON GENE CO., LTD.), each RNA amount was measured using a spectrophotometer, and the total RNA was prepared so as to be 150 ng/μL.
For AQP3 and GAPDH as an internal standard, the expression levels of mRNA were measured using the above total RNA as a template. […]

Compound: O=C(O)CCc1ccccc1 [Sample 3, 3-phenylpropionic acid]
- Tyrosinase activity inhibition rate (tyrosinase; 125 μmol/L): 4.4%
- Tyrosinase activity inhibition rate (tyrosinase; 250 μmol/L): 9.6%
- Tyrosinase activity inhibition rate (tyrosinase; 500 μmol/L): 15.2%
- Tyrosinase activity inhibition rate (tyrosinase; 1000 μmol/L): 22.8%

Compound: O=C(O)CCc1ccc(O)cc1 [Sample 2, 3-(4-Hydroxyphenyl)propionic acid]
- Hexosaminidase release suppression rate [1]: 19.3%

Compound: O=C(O)CCc1ccc(O)c(O)c1 [Sample 1, 3,4-Dihydroxyhydrocinnamic acid]
- AQP3 mRNA expression promotion rate (AQP3 mRNA): 207.8%
